Data taken from patent US20240254138A1, “TRICYCLIC PYRIMIDINES AS CYCLIN-DEPENDENT KINASE 7 (CDK7) INHIBITORS” (JANSSEN PHARMACEUTICA NV, priority 2021, published 2024).
Where two headings read alike, the source gives them in different places.

Experiments:
[1] = system: RNA Polymerase II Serine 5 phosphorylation (Rpb1 CTD, downstream substrate of CDK7) in A549 cells; assay: Imaging-based cellular RNA PolII Ser5 phosphorylation assay in A549 cells; assay type: cell-based, human; conditions: wild-type CDK7, RNA PolII Ser5 phosphorylation, averaged over all measurements; for IC50: Homo sapiens, A549, A549 cells, read-out: CDK7_A549 Wild-type CDK7 (pIC50) (converted); for CDK7_A549 Wild-type CDK7 (pIC50): A549 cells
Summary of the method: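 IC50 derived by fitting % control (DMSO high, 10 μM reference low) against concentration, with Hill slope. Readout: high-content imaging of phospho-Ser5 Rpb1 CTD antibody staining in fixed, permeabilized A549 cells exposed to compound 3 h after 20 h culture in 1% FBS DMEM.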

[2] = system: RNA Polymerase II Serine 5 phosphorylation in A549 cells overexpressing CDK7-mutant (C312S); assay: Imaging-based cellular RNA PolII Ser5 phosphorylation assay in A549 cells overexpressing CDK7-mutant (C312S); assay type: cell-based, human; conditions: RNA PolII Ser5 phosphorylation, averaged over all measurements; for IC50: Homo sapiens, A549, A549 cells overexpressing CDK7-mutant (C312S), read-out: CDK7_A549 mutant hCDK7(pIC50) (converted); for CDK7_A549 mutant hCDK7(pIC50): A549 cells overexpressing CDK7-mutant (C312S)
Summary of the method: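 Readout was automated imaging of anti-phospho-Ser5 Rpb1 CTD immunofluorescence, with IC50 fitted to % control versus concentration. Cells were A549 stably overexpressing non-covalently targetable CDK7 C312S alongside wild-type, exposed to compound 3 h at 37 °C. DMSO and 10 μM reference compound served as controls.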

[3] = molecular target: CDK7/cyclinH/MAT1 trimeric complex (Homo sapiens, UniProt P50613); assay: In vitro CDK7 assay, potency of irreversible covalent inhibitors (kinact/KI), coupled PK/LDH ADP readout at 340 nm; conditions: for Ki / CDK7 (20 nM enz.) (kinact/KI, M^−1*s^−1) / CDK7 (20 nM enz.) (kinact, s^−1): 20 nM enzyme; for kinact: read-out: CDK7 (20 nM enz.) (kinact, s^−1), 20 nM enzyme
Sequence of CDK7/cyclinH/MAT1 trimeric complex (P50613 whole entry): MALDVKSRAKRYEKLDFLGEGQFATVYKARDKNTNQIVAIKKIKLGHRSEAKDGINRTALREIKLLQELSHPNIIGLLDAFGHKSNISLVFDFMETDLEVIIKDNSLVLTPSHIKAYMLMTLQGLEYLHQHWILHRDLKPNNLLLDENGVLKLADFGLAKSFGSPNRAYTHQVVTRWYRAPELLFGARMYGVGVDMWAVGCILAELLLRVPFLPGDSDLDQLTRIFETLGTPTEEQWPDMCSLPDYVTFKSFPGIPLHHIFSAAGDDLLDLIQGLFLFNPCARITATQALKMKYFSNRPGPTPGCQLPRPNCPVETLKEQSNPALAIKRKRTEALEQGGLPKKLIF
Sequence of CDK7/cyclinH/MAT1 trimeric complex (P51946 whole entry partner): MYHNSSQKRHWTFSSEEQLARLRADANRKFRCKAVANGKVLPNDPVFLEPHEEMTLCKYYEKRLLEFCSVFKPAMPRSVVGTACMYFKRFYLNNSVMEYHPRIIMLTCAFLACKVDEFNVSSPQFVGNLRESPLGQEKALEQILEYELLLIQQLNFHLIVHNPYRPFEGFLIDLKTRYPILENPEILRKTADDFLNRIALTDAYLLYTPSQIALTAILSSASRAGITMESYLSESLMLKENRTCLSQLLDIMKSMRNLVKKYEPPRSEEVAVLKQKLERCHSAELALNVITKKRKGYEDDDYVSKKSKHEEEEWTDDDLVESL
Sequence of CDK7/cyclinH/MAT1 trimeric complex (P51948 whole entry partner): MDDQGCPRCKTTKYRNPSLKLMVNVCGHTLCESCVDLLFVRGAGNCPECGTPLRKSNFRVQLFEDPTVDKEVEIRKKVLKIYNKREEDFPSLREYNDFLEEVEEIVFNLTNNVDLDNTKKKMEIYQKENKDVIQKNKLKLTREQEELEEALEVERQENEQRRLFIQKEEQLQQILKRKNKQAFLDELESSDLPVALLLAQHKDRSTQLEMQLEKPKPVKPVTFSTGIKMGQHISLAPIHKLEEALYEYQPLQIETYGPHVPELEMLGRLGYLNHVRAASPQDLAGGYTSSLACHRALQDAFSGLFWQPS

[4] = read-out: CDK7 (20 nM enz.) (kinact/KI, M^−1*s^−1), 20 nM enzyme

Compound	IC50 [1] [nM]	IC50 [2] [nM]	Ki ([3]; CDK7 (20 nM enz.) (KI, μM)) [µM]	kinact [3] [s⁻¹]	kinact/KI [3, 4] [M⁻¹ s⁻¹]	kinact/KI ([3]; read-out: CDK7 (20 nM enz.) (kobs/[I], M^−1*s^−1), 20 nM enzyme) [M⁻¹ s⁻¹]	CDK7_A549 Wild-type CDK7 (pIC50) [1]	CDK7_A549 mutant hCDK7(pIC50) [2]	CDK7 (20 nM enz.) (kinact/KI, M^−1*s^−1) [3] [M⁻¹ s⁻¹]	CDK7 (20 nM enz.) (kinact, s^−1) [3] [s⁻¹]	Ki ([3]; read-out: CDK7 (20 nM enz.) (KI)) [µM]	CDK7 (kinact/KI, M^−1*s^−1) ([3]; potency of irreversible covalent inhibitors, 1 mM ATP, room temperature, averaged values over all measurements) [M⁻¹ s⁻¹]
C=CC(=O)N1CC2(CC(c3cc(F)c4c(c3)Nc3nccc(N5CCOCC5)c3CO4)C2)C1 [Compound 162]	182	> 10000	0.149	4.88e-05	327							
C=C(C(=O)N1CC(N2CCC(c3cc4c(c(C)n3)OCc3c(N5CCOCC5)ccnc3N4)CC2)C1)n1cccn1 [Compound 496]	14.1	7240				680						
C=CC(=O)N1CCC(N2CC(c3cc(C)c4c(c3)Nc3nccc(-c5cnn(C)c5)c3CO4)C2)CC1 [Compound 338]				4.86e-05			7.25	5.52	299.026			
C=CC(=O)N1CCC2(CC1)CC(c1cc(F)c3c(c1)Nc1nccc(N4CCOCC4)c1CO3)C2 [Compound 250]	1820	> 10000	0.564	1.06e-05	18.9							
C=CC(=O)N1CC[C@@H](N2CC(c3cc4c(c(C)n3)O[C@@H](C)c3c(N5CCOCC5)ccnc3N4)C2)C1 (single isomer, unassigned) [Compound 456]	2880	> 10000	24.6	0.000114	4.65							
C=CC(=O)N1CC(n2cc(-c3cc4c(c(C)n3)OCc3c(N5CCOCC5)ccnc3N4)cn2)C1 [Compound 244]	72.4	~7940	0.0398	4.37e-05	1100							
C=CC(=O)N1CC[C@@H](N2CC(c3cc4c(c(C)n3)O[C@H](C)c3c(-c5cnn(C)c5)ccnc3N4)C2)C1 (single isomer, unassigned) [Compound 482]	89.1	> 10000			339							
C=CC(=O)Nc1ccc(-c2cc3c(cn2)OCc2c(N4CCOCC4)ccnc2N3)cc1 [Compound 160]	64.6	> 10000	0.0393	6.88e-05	1750							
C=CC(=O)N1CCC(N2CC(c3ccc4c(c3)Nc3nccc(C5CCOCC5)c3CO4)C2)CC1 [Compound 96]	123	> 10000	0.184						255.867	4.701e-05		
C=CC(=O)N1CC(N2CCC[C@H](c3ccc4c(c3)Nc3nccc(N5CCOCC5)c3CO4)C2)C1 (single isomer, unassigned) [Compound 93]	447	> 10000	0.0862	5.07e-05	589							
CC#CC(=O)N1CC(N2CCC(c3cc4c(c(C5CC5)n3)O[C@H](C)c3c(N5CCOCC5)ccnc3N4)CC2)C1 (single isomer, unassigned) [Compound 499]							5.74	<5	20.4314	4.482e-05	2.19	
CC#CC(=O)N1CC(N2CCC(c3cc4c(c(C)n3)OCc3c(N5CCOCC5)ccnc3N4)N(C)CC2)C1 (centres unmarked) [Compound 373]	269	> 10000	0.113	1.66e-05	147							
C=CC(=O)N1CC(N2CCC(c3ccc4c(c3)Nc3nccc(C5CCOCC5)c3CO4)CC2)C1 [Compound 3]		> 10000					6.89					2787.5
C=CC(=O)N1CC(N2CCC(c3cc(Cl)c4c(c3)Nc3nccc(N5CCS(=O)(=O)CC5)c3CO4)CC2)C1 [Compound 115]			0.0486				6.66	<5	1193.86	5.802e-05		
C=CC(=O)N1CC(N2CCC(O)(c3ccc4c(c3)Nc3nccc(N5CCOCC5)c3CO4)CC2)C1 [Compound 80]	417	> 10000	0.0563	4.16e-05	740							
C=CC(=O)N1CC[C@@H](N2CC(c3cc(C#N)c4c(c3)Nc3nccc(N5CCOCC5)c3[C@H](C)O4)C2)C1 (single isomer, unassigned) [Compound 461]	692	> 10000			16.1							
